# Reference: patent US11976083B2, “Inhibitors of peptidylarginine deiminases” (Gilead Sciences, Inc., priority 2020, dated 2024)
# Molecular target: T1, human PAD4 (Homo sapiens, UniProt Q9UM07)
# T1 construct: human PAD4 (NM_012387), A2-P663, was PCR amplified; His-SUMO (N, cleaved yes); made in house; host or cells: E. coli BL21(DE3)
# Test: In vitro PAD4 BAEE biochemical assay
# Conditions: BAEE substrate 3 mM, 5 nM PAD4, 2 mM calcium chloride; geometric mean of multiple experiments
# Summary of the method: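 Recombinant PAD4 (5 nM final) with 2 mM CaCl2 was preincubated with compound for 30 min at 25 °C in MOPS pH 7.6 buffer with DTT, then reacted with 3 mM BAEE for 2 h at 25 °C. Released ammonia was detected fluorimetrically with o-phthalaldehyde/DTT; IC50 from four-parameter fit, geometric mean of experiments.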
# T1 sequence (Q9UM07 2-663): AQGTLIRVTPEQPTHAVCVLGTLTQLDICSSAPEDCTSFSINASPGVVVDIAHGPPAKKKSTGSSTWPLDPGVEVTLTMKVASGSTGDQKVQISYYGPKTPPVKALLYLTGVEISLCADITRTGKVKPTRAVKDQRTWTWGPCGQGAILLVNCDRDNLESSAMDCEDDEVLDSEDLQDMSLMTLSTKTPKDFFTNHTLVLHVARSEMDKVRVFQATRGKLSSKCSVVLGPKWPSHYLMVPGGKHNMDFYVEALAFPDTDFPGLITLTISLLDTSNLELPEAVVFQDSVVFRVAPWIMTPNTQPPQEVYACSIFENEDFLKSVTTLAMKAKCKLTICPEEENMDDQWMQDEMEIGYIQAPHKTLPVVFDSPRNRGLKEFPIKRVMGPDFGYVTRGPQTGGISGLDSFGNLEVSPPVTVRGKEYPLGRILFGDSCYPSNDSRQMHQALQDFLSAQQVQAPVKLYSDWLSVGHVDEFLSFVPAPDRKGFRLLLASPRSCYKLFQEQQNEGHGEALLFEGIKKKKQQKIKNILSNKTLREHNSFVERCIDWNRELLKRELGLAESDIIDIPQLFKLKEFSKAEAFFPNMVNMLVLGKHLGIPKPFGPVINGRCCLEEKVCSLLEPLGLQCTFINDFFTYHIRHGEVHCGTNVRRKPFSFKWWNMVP
row,SMILES,IC50
1,"COc1cc(C(=O)N2CC[C@@H](OC)[C@@H](N)C2)cc2nc(-c3cc4ccc5nc4n3CCCCCc3cncc(Cl)c3C(=O)N[C@@H]5C)n(C)c12 [Example 651, (2~{R})-17-[5-[(3~{S}, 4~{R})-3-amino-4-methoxy-piperidine-1-carbonyl]-7-methoxy-1-methyl-benzimidazol-2-yl]-6-chloro-2-methyl-3,8,16,22-tetrazatetracyclo[14.5.2.0^ {5,10).0^{19,23}]tricosa-1(22),5,7,9,17,19(23),20-heptaen-4-one]",59 nM
2,"COc1cc(C(=O)N2CC[C@@H](OC(F)F)[C@@H](N)C2)cc2nc(-c3cc4ccc5nc4n3CCCCCc3nccnc3C(=O)N[C@@H]5C)n(C3CC3)c12 [Example 612, (2~{R})-17-[5-[(3~{S),4~{R})-3-amino-4-(difluoromethoxy)piperidine-1-carbonyl]-1-cyclopropyl-7-methoxy-benzimidazol-2-yl]-2-methyl-3,6,9,16,22-pentazatetracyclo [14.5.2.0^{5,10}.0^{19, 23}]tricosa-1(21),5(10), 6,8,17,19,22-heptaen-4-one]",157 nM
3,"COc1cc(C(=O)N2C[C@H]3CC[C@@H]2[C@@H]3N)cc2nc(-c3cc4ccc5nc4n3CCCCCc3ccccc3C(=O)N[C@@H]5C)n(C)c12 [Example 42, (2~{R})-17-[5-[(1~{R},4~{R},7~{R})-7-amino-2-azabicyclo[2.2.1]heptane-2-carbonyl]-7-methoxy-1-methyl-benzimidazol-2-yl]-2-methyl-3,16,22-triazatetracyclo[14.5.2.0^{5,10}.0^{19,23}] tricosa-1(22),5,7,9,17,19(23),20-heptaen-4-one]",108 nM
4,"CC(C)n1c(-c2cc3ccc4nc3n2CCCCCCC(C)(C)C(=O)N[C@@H]4C)nc2cc(C(=O)N[C@H]3CNCC[C@@H]3F)c(F)cc21 [Example 421, 6-fluoro-~{N}-[(3~{S),4~{S})-4-fluoro-3-piperidyl]-1-isopropyl-2-[(11~{R})-8,8,11-trimethyl-9-oxo-1,10,19-triazatricyclo[10.5.2.0^{15,18}]nonadeca-12(19),13,15(18),16-tetraen-17-yl]benzimidazole-5-carboxamide]",304 nM
5,"COc1cc(C(=O)N2CCC[C@@H](N)C2)cc2nc(-c3cc4ccc5nc4n3CCCCCCNC(=O)c3ncccc3-5)n(C)c12 [Example 46, 17-[5-[(3~{R})-3-aminopiperidine-1-carbonyl]-7-methoxy-1-methyl-benzimidazol-2-yl]-6,9,16,22-tetrazatetracyclo[14.5.2.0^{2,7}.0^{19,23}] tricosa-1(22),2,4,6,17,19(23),20-heptaen-8-one]",277 nM
6,"COc1cc(C(=O)N2CC[C@@H](OC)[C@@H](N)C2)cc2nc(-c3cc4ccc5nc4n3CCCCCCNC(=O)c3ncccc3-5)n(C)c12 [Example 675, 17-[5-[(3~{S},4~{R})-3-amino-4-methoxy-piperidine-1-carbonyl]-7-methoxy-1-methyl-benzimidazol-2-yl]-6,9,16,22-tetrazatetracyclo [14.5.2.0^{2,7}.0^{19,23}] tricosa-1(22),2,4,6,17,19(23), 20-heptaen-8-one]",559 nM
7,"COc1cc(C(=O)N2CCC[C@@H](N)C2)cc2nc(-c3cc4ccc5nc4n3CCCCCCNC(=O)CO5)c(C)n12 [Example 293, 17-[7-[(3˜{R})-3-aminopiperidine-1-carbonyl]-5-methoxy-3-methyl-imidazo[1,2-a]pyridin-2-yl]-11-oxa-1,8,19-triazatricyclo[10.5.2.0^{15,18}]nonadeca-12(19),13,15(18),16-tetraen-9-one]",548 nM

# Molecules with a lower IC50, results first:
row,IC50,SMILES
1,45 nM,"C[C@H]1NC(=O)[C@@H]2C[C@H]2CCCCCn2c(-c3nc4cc(C(=O)N[C@H]5CNCC[C@@H]5F)c(F)cc4n3CCO)cc3ccc1nc32 [Example 601, 6-fluoro-~{N}-[(3~{S},4~ {S})-4-fluoro-3-piperidyl]-1-(2-hydroxyethyl)-2-[(2~{R},5~{R},7~{R})-2-methyl-4-oxo-3,13,19-triazatetracyclo[11.5.2.0^ {5,7}.0^{16,20}]icosa-1(19),14,16(20),17-tetraen-14-yl]benzimidazole-5-carboxamide]"
2,52 nM,"C[C@H]1NC(=O)[C@@H]2C[C@H]2CCCC(F)(F)Cn2c(-c3nc4cc(C(=O)N[C@H]5CNCC[C@@H]5F)c(F)c(F)c4n3C)cc3ccc1nc32 [Example 560, 2-[(2~{R},5~{R},7~ {R})-11,11-difluoro-2-methyl-4-oxo-3,13,19-triazatetracyclo[11.5.2.0^ {5,7}.0^{16,20}]icosa-1(19), 14,16(20),17-tetraen-14-yl]-6,7-difluoro-~{N}-[(3~{S},4~{S})-4-fluoro-3-piperidyl]-1-methyl-benzimidazole-5-carboxamide]"
3,49 nM,"COc1cc(C(=O)N2C[C@H](N)[C@@H]3CC[C@H]2C3)cc2nc(-c3cc4ccc5nc4n3CCCCCc3nc(C(F)(F)F)ccc3C(=O)N[C@@H]5C)n(C)c12 [Example 842, (2~{R})-17-[5-[(1~{S},4~{R},5~ {R})-4-amino-2-azabicyclo[3.2.1]octane-2-carbonyl]-7-methoxy-1-methyl-benzimidazol-2-yl]-2-methyl-8-(trifluoromethyl)-3,9,16,22-tetrazatetracyclo[14.5.2.0^ {5,10}.0^{19,23}]tricosa-1(22), 5(10),6,8,17,19(23),20-heptaen-4-one]"
4,39 nM,"C[C@H]1NC(=O)C2C[C@H]2CCCCCn2c(-c3nc4cc(C(=O)N5CCC[C@@H](N)C5)cc(Cl)c4n3C)cc3ccc1nc32 (stereo partly drawn) [Example 506, (2~{R},7~{R})-14-[5-[(3~ {R})-3-aminopiperidine-1-carbonyl]-7-chloro-1-methyl-benzimidazol-2-yl]-2-methyl-3,13,19-triazatetracyclo[11.5.2.0^ {5,7}.0^{16,20}]icosa-1(19), 14,16(20),17-tetraen-4-one]"
5,43 nM,"COc1cc(C(=O)N2CC[C@@H](OC(F)F)[C@@H](N)C2)cc2nc(-c3cc4ccc5nc4n3CCCCCc3nc4ccccc4nc3C(=O)N[C@@H]5C)n(C)c12 [Example 824, (2~{R})-21-[5-[(3~{S},4~{R})-3-amino-4-(difluoromethoxy)piperidine-1-carbonyl]-7-methoxy-1-methyl-benzimidazol-2-yl]-2-methyl-3,6,13,20,26-pentazapentacyclo [18.5.2.0^{5,14).0^{7, 12}.0^{23,27}]heptacosa-1(26),5,7(12),8,10,13,21, 23(27),24-nonaen-4-one]"
6,27 nM,"CO[C@H]1C[C@@H]1n1c(-c2cc3ccc4nc3n2CC(F)(F)CCC[C@@H]2C[C@H]2C(=O)N[C@@H]4C)nc2cc(C(=O)N3C[C@H]4CC[C@@H]3[C@@H]4N)cc(F)c21 [Example 804, (2~{R},5~{R},7~{R})-14-[5-[(1~{R},4~{R},7~{R})-7-amino-2-azabicyclo[2.2.1]heptane-2-carbonyl]-7-fluoro-1-[(1~{S},2~{S})-2-methoxycyclopropyl]benzimidazol-2-yl]-11,11-difluoro-2-methyl-3,13,19-triazatetracyclo[11.5.2.0^ {5,7}.0^{16,20}]icosa-1(18),14,16,19-tetraen-4-one]"
7,42 nM,"CO[C@@H]1CCN(C(=O)c2ccc3c(c2)nc(-c2cc4ccc5nc4n2CCCCCc2cc(Cl)ncc2C(=O)N[C@@H]5C)n3C2CC2)C[C@@H]1N [Example 652, 17-[5-[(3~{S},4~{R})-3-amino-4-methoxy-piperidine-1-carbonyl]-1-cyclopropyl-benzimidazol-2-yl]-8-chloro-2-methyl-3,7,16,22-tetrazatetracyclo[14.5.2.0^ {5,10}.0^{19,23}] tricosa-1(22),5,7,9,17,19(23), 20-heptaen-4-one]"
8,56 nM,"COc1cc(C(=O)N2[C@H]3CC[C@@H]2[C@H](N)C3)cc2nc(-c3cc4ccc5nc4n3CCC/C=C/c3ccccc3C(=O)N[C@@H]5C)n(C)c12 [Example 24, (2~{R},11~{E})-17-[5-[(1~{R},2~{R},4~{S})-2-amino-7-azabicyclo[2.2.1]heptane-7-carbonyl]-7-methoxy-1-methyl-benzimidazol-2-yl]-2-methyl-3,16,22-triazatetracyclo[14.5.2.0^{5,10}.0^{19,23}] tricosa-1(22),5,7,9,11,17,19(23),20-octaen-4-one]"
9,10 nM,"COc1cc(C(=O)N2C[C@H](N)[C@@H]3CC[C@H]2C3)cc2nc(-c3cc4ccc5nc4n3CCCCCC[C@@](c3ccccn3)(C(F)F)C(=O)N[C@@H]5C)n(C)c12 [Example 890, (8~{S},11~{R})-17-[5-[(1~{S},4~{R},5~{R})-4-amino-2-azabicyclo[3.2.1]octane-2-carbonyl]-7-methoxy-1-methyl-benzimidazol-2-yl]-8-(difluoromethyl)-11-methyl-8-(2-pyridyl)-1,10,19-triazatricyclo [10.5.2.0^{15,18}]nonadeca-12(19),13,15(18), 16-tetraen-9-one]"
10,51 nM,"COc1cc(C(=O)N[C@H]2CNC[C@H](O)C2)cc2nc(-c3cc4ccc5nc4n3CCCCCCC(C)(C)C(=O)N[C@@H]5C)n(C)c12 [Example 530, ~{N}-[(3~{R},5~ {R})-5-hydroxy-3-piperidyl]-7-methoxy-1-methyl-2-[(11~{R})-8,8,11-trimethyl-9-oxo-1,10,19-triazatricyclo [10.5.2.0^{15,18}]nonadeca-12(19),13,15(18),16-tetraen-17-yl]benzimidazole-5-carboxamide]"
11,29 nM,"C[C@H]1NC(=O)[C@H]2[C@H](CCCCCn3c(-c4nc5cc(C(=O)N6C[C@H](N)[C@@H]7CC[C@H]6C7)cc(F)c5n4C4CC4)cc4ccc1nc43)C2(F)F [Example 775, (2~{R},5~{R},7~{S})-14-[5-[(1~{S},4~{R},5~{R})-4-amino-2-azabicyclo[3.2.1]octane-2-carbonyl]-1-cyclopropyl-7-fluoro-benzimidazol-2-yl]-6,6-difluoro-2-methyl-3,13,19-triazatetracyclo[11.5.2.0^ {5,7).0^{16,20}]icosa-1(19),14,16(20),17-tetraen-4-one]"
